Data on 18 compounds can be found in US20260125375A1 (Pfizer Inc., priority 2022, published 2026).

Where two headings read alike, the source gives them in different places.

One test deals with T1, CBL-B (residues 36-427) (Homo sapiens, UniProt Q13191).
T1 construct: Purified CBL-B (residues 36-427) and C-CBL (residues 46-435) proteins from baculovirus-infected insect cells; made in house; host or cells: baculovirus-infected insect cells
The test is described as follows: Ligand Displacement Assay (LDA), HTRF competitive binding against BODIPY-labeled fluorescent tracer, CBL-B. The settings on record: geometric mean of the number of tests, read-out: CBL-B Ki (nM) GMean. Summed up:
(§1)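 First, the insect-cell-expressed protein is biotinylated at its amino-terminal AviTag with BirA and coupled to SA-Tb. Next, the tracer KD is determined for each protein. Finally, compounds are titrated three-fold in duplicate […], at 2% DMSO, and Ki is reported as a geometric mean.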
(TR-FRET usually uses a lanthanide donor and a delayed reading to cut background.)

A further test concerns the target T2, C-CBL (residues 46-435) (Homo sapiens, UniProt P22681).
T2 construct: Purified CBL-B (residues 36-427) and C-CBL (residues 46-435) proteins from baculovirus-infected insect cells; made in house; host or cells: baculovirus-infected insect cells
T2 sequence (P22681 46-435): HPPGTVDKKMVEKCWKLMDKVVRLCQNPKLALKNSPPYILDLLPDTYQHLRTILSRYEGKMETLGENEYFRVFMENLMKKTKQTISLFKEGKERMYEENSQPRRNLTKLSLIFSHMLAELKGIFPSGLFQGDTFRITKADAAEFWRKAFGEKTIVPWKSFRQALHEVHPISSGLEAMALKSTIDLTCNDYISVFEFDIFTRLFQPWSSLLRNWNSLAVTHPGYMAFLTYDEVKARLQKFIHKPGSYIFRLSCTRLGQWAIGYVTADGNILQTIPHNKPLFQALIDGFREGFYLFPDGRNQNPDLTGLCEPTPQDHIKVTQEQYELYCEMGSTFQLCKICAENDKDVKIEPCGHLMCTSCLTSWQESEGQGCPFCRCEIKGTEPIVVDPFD
The test is described as follows: Ligand Displacement Assay (LDA), HTRF competitive binding against BODIPY-labeled fluorescent tracer, C-CBL. Particulars: geometric mean of the number of tests, read-out: C-CBL Ki (nM) GMean. The procedure, abridged:
as §1

The target in another test is T3, CBL-B (Homo sapiens, UniProt Q13191).
T3 construct: endogenous in cells; host or cells: Jurkat HiBit-IL2 reporter cells, C-CBL knocked out by CRISPR
The test is described as follows: Jurkat HiBit-IL2 assay (c-CBL KO), reporter cell line expressing CBL-B only. In kind it is cell-based. Particulars: geometric mean, read-out: C-CBL KO EC50 (nM) GMean. The text has this:
(§2) Jurkat HiBit-IL2 Assay (WT, c-CBL KO, CBL-B KO)
(§3) The purpose of the Jurkat HiBit-IL2 assay is to evaluate the effect of the inhibition of CBL-B and/or C-CBL on TCR/CD28 stimulated interleukin-2 (IL-2) secretion.
(§4) The expression of IL-2 can then be accurately measured by HiBit luciferase assay. Further, C-CBL or CBL-B was knocked out by CRISPR respectively in this Jurkat HiBit-IL2 reporter cell line to create reporter cell line expressing CBL-B only (c-CBL knockout (KO)) or C-CBL only (CBL-B KO).
(§5) All three reporter cell lines were maintained in RPMI-1640 media with GlutaMax, 10% fetal bovine serum, 100 units/ml of penicillin, and 100 μg/ml of streptomycin at 37° C., 5% CO2, at a cell density 1×10e5-2×10e6 viable cells/ml. Serial diluted compounds in DMSO (40 nl/well, final 0.1% DMSO in assay cell culture) were plated into 384-well white-wall clear-bottom cell culture plates. Reporter cells were pelleted and resuspended in fresh cell culture medium to 0.66×10e6 cells/ml and added to the assay plate at 30 μl/well (20,000 cells/well). The cells were incubated with compounds for 1 hour at 37° C., 5% CO2. 10 μl/well of anti-CD3 antibody (OKT3) and anti-CD28 antibody (CD28.2) prediluted in fresh cell culture medium at 4× final concentration (anti-CD3 mAb: 4 μg/ml; anti-CD28 mAb: 8 μg/ml) was added into the cells (final concentration of anti-CD3 mAb: 1 μg/ml; anti-CD28 mAb: 2 μg/ml). The cells were cultured for another 4 hours at 37° C., 5% CO2. The Nano-Glo HiBiT Lytic Reagent was prepared following the manufacturer's protocol. 20 ul/well of the Nano-Glo HiBiT Lytic Reagent was added into the reporter cell culture assay plate and incubated at room temperature (20-25° C.) for 15 minutes. The plates were read on a Perkin-Elmer EnVision plate reader with 0.1 second integration time. Data were normalized to “Fold of Effect” with the anti-CD3 and anti-CD28 antibodies only samples as the baseline activation level and EC50 was calculated. The EC50 (nM) values reported are the geometric means (GMean) of the number of tests conducted.
For orientation: HiBiT is a short tag that completes a luciferase, so light tracks the accessible tagged protein.

Another test deals with T4, C-CBL (Homo sapiens, UniProt P22681).
T4 construct: endogenous in cells; host or cells: Jurkat HiBit-IL2 reporter cells, CBL-B knocked out by CRISPR
The test is described as follows: Jurkat HiBit-IL2 assay (CBL-B KO), reporter cell line expressing C-CBL only. In kind it is cell-based. The settings on record: geometric mean, read-out: CBL-B KO EC50 (nM) GMean.
From the text: as §2, §3, §4, §5

Setting [1] is: C-CBL KO (expressing CBL-B only), Table 16b (further repetition).
The mark [2] stands for this setting: CBL-B KO (expressing C-CBL only), Table 16b (further repetition).
The mark [3] stands for this setting: c-CBL KO (CBL-B only), anti-CD3/anti-CD28 stimulation 4 hours, Table 16a.
Where [4] appears, read: CBL-B KO (C-CBL only), anti-CD3/anti-CD28 stimulation 4 hours, Table 16a.

One may read the Ki as the equilibrium dissociation constant of an inhibitor or competing ligand from its target. As usually defined, the EC50 is the concentration giving half of the maximal effect. Take `C[C@@H](c1nc(C(F)(F)F)cc2c(-c3cccc([C@H](c4nncn4C)C4CCC4)c3)n[nH]c12)N1CC[C@H]1CO` (single isomer, unassigned) [Example D64]: the Ki at CBL-B (residues 36-427) came to 8.7 nM; at C-CBL (residues 46-435) it was 58 nM. For the same compound, the EC50 on CBL-B (setting [1]) is 134 nM; on C-CBL (setting [2]), 483 nM.
With `C[C@H](c1nc(C(F)(F)F)cc2c(-c3cccc([C@H](c4nncn4C)C4CCC4)c3)n[nH]c12)N1CC[C@H]1CO` (single isomer, unassigned) [Example D65], the Ki on CBL-B (residues 36-427) was 13.7 nM; on C-CBL (residues 46-435), 110 nM. Moreover, the 50% effective concentration (EC50) at CBL-B (setting [1]) is 468 nM; on C-CBL (setting [2]), 1180 nM.
Consider `C[C@@H](c1nc(C(F)(F)F)cc2c(-c3cccc([C@H](c4nncn4C)C4CCC4)c3)n[nH]c12)N1CC(C)(O)C1` (single isomer, unassigned) [Example D66], for which the inhibition constant Ki was 2.6 nM on CBL-B (residues 36-427) and 22.1 nM at C-CBL (residues 46-435). The 50% effective concentration (EC50) at CBL-B (setting [1]) amounted to 72 nM; on C-CBL (setting [2]) it was 409 nM.
For `C[C@H](c1nc(C(F)(F)F)cc2c(-c3cccc([C@H](c4nncn4C)C4CCC4)c3)n[nH]c12)N1CC(C)(O)C1` (single isomer, unassigned) [Example D67], the Ki at CBL-B (residues 36-427) came out at 10.9 nM; at C-CBL (residues 46-435), 78.5 nM. Also, the EC50 was found to be 321 nM at CBL-B (setting [1]) and 1520 nM on C-CBL (setting [2]).
As to `C[C@@H](c1nc(C(F)(F)F)cc2c(-c3cccc([C@H](c4nncn4C)C4CCC4)c3)n[nH]c12)N1CC[C@@H](O)C1` (single isomer, unassigned) [Example D68], the Ki at CBL-B (residues 36-427) is 15.2 nM; at C-CBL (residues 46-435), 134 nM. The EC50 on CBL-B (setting [1]) came to 293 nM; on C-CBL (setting [2]), 1710 nM.
Consider `C[C@H](c1nc(C(F)(F)F)cc2c(-c3cccc([C@H](c4nncn4C)C4CCC4)c3)n[nH]c12)N1CC[C@@H](O)C1` (single isomer, unassigned) [Example D69], for which the Ki stood at 9.3 nM on CBL-B (residues 36-427) and 54.3 nM at C-CBL (residues 46-435). The EC50 was 154 nM on CBL-B (setting [1]) and 490 nM at C-CBL (setting [2]).
The like results for `C[C@@H](c1nc(C(F)(F)F)cc2c(-c3cccc([C@H](c4nncn4C)C4CCC4)c3)n[nH]c12)N1CC[C@H](O)C1` (single isomer, unassigned) [Example D70] were, in that order, 7.1 nM, 48.4 nM, 163 nM and 618 nM.
For `C[C@@H](c1nc(C(F)(F)F)cc2c(-c3cccc([C@H](c4nncn4C)C4CCC4)c3)n[nH]c12)N1CC[C@H](O)C1` (single isomer, unassigned) [Example D71], the Ki was determined as 1.3 nM at CBL-B (residues 36-427) and 13 nM on C-CBL (residues 46-435). Further, the concentration giving a half-maximal response (EC50) on CBL-B (setting [1]) was found to be 77 nM; on C-CBL (setting [2]), 434 nM.
For the compound `C[C@H](NC1(CO)CCC1)c1nc(C(F)(F)F)cc2c(-c3cccc([C@H](c4nncn4C)C4CCC4)c3)n[nH]c12` (single isomer, unassigned) [Example D72], the Ki turned out to be 8.7 nM at CBL-B (residues 36-427) and 116 nM on C-CBL (residues 46-435). Further, the EC50 turned out to be 103 nM on CBL-B (setting [1]) and 563 nM on C-CBL (setting [2]).
The like results for `C[C@@H](NC1(CO)CCC1)c1nc(C(F)(F)F)cc2c(-c3cccc([C@H](c4nncn4C)C4CCC4)c3)n[nH]c12` (single isomer, unassigned) [Example D73] were, in that order, 12.1 nM, 157 nM, 118 nM and 639 nM.
On the same counts, the results for `CCC(CC)(CO)N[C@@H](C)c1nc(C(F)(F)F)cc2c(-c3cccc([C@H](c4nncn4C)C4CCC4)c3)n[nH]c12` (single isomer, unassigned) [Example D74] are 31.5 nM, 366 nM, 639 nM and 3400 nM.
For the compound `CCC(CC)(CO)N[C@H](C)c1nc(C(F)(F)F)cc2c(-c3cccc([C@H](c4nncn4C)C4CCC4)c3)n[nH]c12` (single isomer, unassigned) [Example D75], the inhibition constant Ki on CBL-B (residues 36-427) was 11 nM; at C-CBL (residues 46-435) it was 128 nM. Further, the half-maximal effective concentration (EC50) at CBL-B (setting [1]) came to 195 nM; at C-CBL (setting [2]), 1030 nM.
For `CC[C@H](c1cccc(-c2n[nH]c3c([C@H](C)NC[C@H](C)O)nc(C(F)(F)F)cc23)c1)c1nncn1C` (single isomer, unassigned) [Example D76], the Ki worked out at 0.7 nM on CBL-B (residues 36-427) and 2.9 nM on C-CBL (residues 46-435). Further, the EC50 on CBL-B (setting [1]) turned out to be 20 nM; on C-CBL (setting [2]) it was 39 nM.
Consider `CC[C@H](c1cccc(-c2n[nH]c3c([C@@H](C)NC[C@H](C)O)nc(C(F)(F)F)cc23)c1)c1nncn1C` (single isomer, unassigned) [Example D77], for which the results for the Ki at CBL-B (residues 36-427) and at C-CBL (residues 46-435) were 0.8 nM and 4.5 nM, respectively. Besides, the EC50 at CBL-B (setting [1]) was 33 nM; at C-CBL (setting [2]) it was 93 nM.
With `CC(O)CNC(C)c1nc(C2CC2)cc2c(-c3cccc(C(c4nncn4C)C4CCC4)c3)n[nH]c12` (single isomer, unassigned) [Example H1], the Ki stood at 4.3 nM on CBL-B (residues 36-427) and 48.4 nM on C-CBL (residues 46-435). Further, the EC50 worked out at 103 nM at CBL-B (setting [1]), 44 nM on CBL-B (setting [3]), 559 nM on C-CBL (setting [4]) and 485 nM at C-CBL (setting [2]).
With `CC(O)CNC(C)c1nc(C2CC2)cc2c(-c3cccc(C(c4nncn4C)C4CCC4)c3)n[nH]c12` (single isomer, unassigned) [Example H2], the Ki turned out to be 1.4 nM on CBL-B (residues 36-427) and 18.3 nM on C-CBL (residues 46-435). Moreover, the EC50 on CBL-B (setting [1]) came to 41 nM; on CBL-B (setting [3]) it was 17 nM; at C-CBL (setting [4]) it was 232 nM; on C-CBL (setting [2]), 165 nM.
`CC(NC1CCC1)c1nc(C2CC2)cc2c(-c3cccc(C4(Cc5nncn5C)COC4)c3)n[nH]c12` (single isomer, unassigned) [Example H3, N-{(1ξ)-1-[5-cyclopropyl-3-(3-{3-[(4-methyl-4H-1,2,4-triazol-3-yl)methyl]oxetan-3-yl}phenyl)-1H-pyrazolo[3,4-c]pyridin-7-yl]ethyl}cyclobutanamine]: the Ki on CBL-B (residues 36-427) was found to be 8.1 nM; at C-CBL (residues 46-435) it was 28.8 nM. Further, the concentration giving a half-maximal response (EC50) at CBL-B (setting [1]) turned out to be 231 nM; at CBL-B (setting [3]), 49 nM; at C-CBL (setting [4]), 392 nM; on C-CBL (setting [2]), 415 nM.
With `CC(NC1CCC1)c1nc(C2CC2)cc2c(-c3cccc(C4(Cc5nncn5C)COC4)c3)n[nH]c12` (single isomer, unassigned) [Example H4, N-{(1ξ)-1-[5-cyclopropyl-3-(3-{3-[(4-methyl-4H-1,2,4-triazol-3-yl)methyl]oxetan-3-yl}phenyl)-1H-pyrazolo[3,4-c]pyridin-7-yl]ethyl}cyclobutanamine], the Ki stood at 1 nM on CBL-B (residues 36-427) and 4.5 nM on C-CBL (residues 46-435). Also, the EC50 was determined as 11 nM on CBL-B (setting [1]), 5 nM at CBL-B (setting [3]), 43 nM at C-CBL (setting [4]) and 28 nM on C-CBL (setting [2]).
